Measurements: patent US10329309B2, “3-(3H-imidazo[4,5-B]pyridin-2-yl)-1H-pyrazolo[4,3-B]pyridines and therapeutic uses thereof” (Samumed, LLC, priority 2015, dated 2019)

Key:
[1] = test system: primary human mesenchymal stem cells (hMSCs); assay: Induction of chondrogenesis in primary human mesenchymal stem cells (nodule imaging, Rhodamine B/Nile Red); format: cell-based; details: hMSC chondrogenesis; for Emax: TGF-β3 as positive control, read-out: Max. Activity as % TGF-β3 activity; for EC50: concentration required to induce 50% levels of chondrogenesis vs TGF-β3, read-out: Conc (nM) of 50% TGF-β3 activity
Protocol: Representative compounds were screened using primary human mesenchymal stem cells (hMSCs) to determine their ability to induce chondrogenesis (process by which cartilage is developed).
Primary human mesenchymal stem cells (hMSCs) were purchased from Lonza (Walkersville, Md.) and expanded in Mesenchymal Stem Cell Growth Media (Lonza). Cells between passage 3 and 6 were used for the experiments.
Each compound was dissolved in DMSO as a 10 mM stock and used to prepare compound source plates. For the 96 well assay, serial dilution (1:3, 6-point dose-response curves from 2700 nM to 10 nM) and compound transfer was performed using the ECHO 550 (Labcyte, Sunnyvale, Calif.) into 96-well clear bottom assay plates (Greiner Bio-One) with appropriate DMSO backfill for a final DMSO concentration of 0.03%. hMSCs were plated at 20,000 cells/well in 250 μL/well Incomplete Chondrogenic Induction Medium (Lonza; DMEM, dexamethasone, ascorbate, insulin-transferrin-selenium [ITS supplement], gentamycin-amphotericin [GA-1000], sodium pyruvate, proline and L-glutamine). TGF-−3 (10 ng/mL) was used as a positive control for differentiation while negative control wells were treated with 75 nL DMSO for normalization and calculating EC50 values. For the 384 well assay, serial dilution (1:3, 8-point dose-response curves from 5000 nM to 2.2 nM) and compound transfer was performed using the ECHO 550 (Labcyte, Sunnyvale, Calif.) into 384-well clear bottom assay plates (Greiner Bio-One) with appropriate DMSO backfill for a final DMSO concentration of 0.03%. hMSCs were plated at 8,000 cells/well in 80 μL/well Incomplete Chondrogenic Induction Medium (Lonza; DMEM, dexamethasone, ascorbate, insulin-transferrin-selenium [ITS supplement], gentamycin-amphotericin [GA-1000], sodium pyruvate, proline and L-glutamine). TGF-β3 (10 ng/mL) was used as a positive control for differentiation while negative control wells were treated with 25 nL DMSO for normalization and calculating EC50 values. Cells were incubated at 37° C. and 5% CO2 for 6 days. To image chondrogenic nodules, the cells were fixed using 4% formaldehyde (Electron Microscopy Sciences), and stained with 2 μg/mL Rhodamine B (Sigma-Aldrich) and 20 μM Nile Red (Sigma-Aldrich) [Johnson K., et. al, A Stem Cell-Based Approach to Cartilage Repair, Science, (2012), 336(6082), 717-721]. The nodules imaged (25 images per well for 96 well plates and 9 images per well for 384 well plates at 10× magnification) by excitation at 531 nm and emission at 625 nm and quantified using the CellInsight CX5 (Thermo Scientific). Area of nodules in each well was normalized to the average of 3 DMSO treated wells on the same plate using Excel (Microsoft Inc.). The normalized averages (fold change over DMSO) of 2 or 3 replicate wells for each compound concentration were calculated. Due to solubility limitations of some of the compounds, curve fitting was incomplete leading to inaccurate EC50 determinations.
Using TGF-β3 as a positive control, the concentration of representative compounds required to induce 50% levels of chondrogenesis is reported. In addition, the maximum activity of each compound and the respective dose that each compound reached maximum chondrogenesis activity is reported.

IL-6 (THP-1 cells) = assay: Inhibition of IL-6 in LPS-stimulated THP-1 monocytes (HTRF); format: cell-based; details: Homo sapiens; for EC50: LPS 500 ng/mL, IL-6 by HTRF; for inhibition at 10 µM: LPS stimulated, IL-6, at 10 μM, read-out: percent inhibition at 10 μM (given for EC50 of >10 μM)
In short: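 THP-1 cells, serum-starved in 1% FBS for 24 h, were pre-incubated 2 h with compound (10-point, 1:3 from 10 μM, 0.1% DMSO), then stimulated with 500 ng/mL LPS for 22 h at 37 °C. IL-6 was quantified by HTRF 665/620 ratio. EC50 was fitted from DMSO-normalized data; above 10 μM, % inhibition at 10 μM is given.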

Compound | EC50 (IL-6 (THP-1 cells)) [nM] | EC50 [1] [nM] | Emax [1] [%] | inhibition at 10 µM (IL-6 (THP-1 cells)) [%]
CCC(=O)Nc1cncc(-c2ccc3[nH]nc(-c4nc5c(-c6ccsc6)ccnc5[nH]4)c3n2)c1 [Compound 281, N-(5-(3-(7-(thiophen-3-yl)-3H-imidazo[4,5-b]pyridin-2-yl)-1H-pyrazolo[4,3-b]pyridin-5-yl)pyridin-3-yl)propionamide] | > 10000 |  | 38 | 25
CN(C)c1cncc(-c2ccc3[nH]nc(-c4nc5c(-c6cccs6)ccnc5[nH]4)c3n2)c1 [Compound 343, N,N-dimethyl-5-(3-(7-(thiophen-2-yl)-3H-imidazo[4,5-b]pyridin-2-yl)-1H-pyrazolo [4,3-b]pyridin-5-yl)pyridin-3-amine] | 4 | 900 | 57 | 
CCNCc1cncc(-c2ccc3[nH]nc(-c4nc5c(-c6cc(F)cc(NCCN(C)C)c6)ccnc5[nH]4)c3n2)c1 [Compound 454, N^1-(3-(2-(5-(5-((ethylamino)methyl)pyridin-3-yl)-1H-pyrazolo[4,3-b]pyridin-3-yl)-3H-imidazo[4,5-b]pyridin-7-yl)-5-fluorophenyl)-N^2,N^2-dimethylethane-1,2-diamine] | > 10000 | 21 | 149 | 36.4
CCCC(=O)Nc1cncc(-c2ccc3[nH]nc(-c4nc5c(-c6cc(F)cc(CNS(C)(=O)=O)c6)ccnc5[nH]4)c3n2)c1 [Compound 493, N-(5-(3-(7-(3-fluoro-5-(methylsulfonamidomethyl)phenyl)-3H-imidazo[4,5-b]pyridin-2-yl)-1H-pyrazolo[4,3-b]pyridin-5-yl)pyridin-3-yl)butyramide] | > 10000 |  | 43 | 23.4
Fc1cccc(-c2ccnc3[nH]c(-c4n[nH]c5ccc(-c6cncc(OC7CCNCC7)c6)nc45)nc23)c1 [Compound 512, 3-(7-(3-fluorophenyl)-3H-imidazo[4,5-b]pyridin-2-yl)-5-(5-(piperidin-4-yloxy)pyridin-3-yl)-1H-pyrazolo[4,3-b]pyridine] | > 10000 | 2 | 93 | 35.7

More lines, main results first:

EC50 (IL-6 (THP-1 cells)) [nM] | EC50 [1] [nM] | Compound | Emax [1] [%] | inhibition at 10 µM (IL-6 (THP-1 cells)) [%]
> 10000 | 10 | CCCCC(=O)Nc1cncc(-c2ccc3[nH]nc(-c4nc5c(-c6cc(F)cc(NCCN(C)C)c6)ccnc5[nH]4)c3n2)c1 [Compound 467, N-(5-(3-(7-(3-((2-(dimethylamino)ethyl)amino)-5-fluorophenyl)-3H-imidazo[4,5-b]pyridin-2-yl)-1H-pyrazolo[4,3-b]pyridin-5-yl)pyridin-3-yl)pentanamide] | 71 | 23
3480 | 10 | Fc1cccc(-c2ccnc3[nH]c(-c4n[nH]c5ccc(C6CCNCC6)nc45)nc23)c1 [Compound 505, 3-(7-(3-fluorophenyl)-3H-imidazo[4,5-b]pyridin-2-yl)-5-(piperidin-4-yl)-1H-pyrazolo[4,3-b]pyridine] | 51 | 
> 10000 | 7 | Fc1cccc(-c2ccnc3[nH]c(-c4n[nH]c5ccc(-c6cn[nH]c6)nc45)nc23)c1 [Compound 507, 3-(7-(3-fluorophenyl)-3H-imidazo[4,5-b]pyridin-2-yl)-5-(1H-pyrazol-4-yl)-1H-pyrazolo[4,3-b]pyridine] | 57 | 35.9
> 10000 |  | Cn1cc(-c2ccc3[nH]nc(-c4nc5c(-c6cccc(F)c6)ccnc5[nH]4)c3n2)cn1 [Compound 508, 3-(7-(3-fluorophenyl)-3H-imidazo[4,5-b]pyridin-2-yl)-5-(1-methyl-1H-pyrazol-4-yl)-1H-pyrazolo[4,3-b]pyridine] | 43 | 15.5
